PubChem BioAssay AID256 (DTP/NCI, 2004)
Toxic doses and inconclusive results are not listed. Non-standard residues stand in square brackets, D forms with d. Residues, ends and D or L forms follow the SMILES beside them. ξ: configuration not given here. ξF = NC(Cc1ccccc1)C(=O)O

System: CD2F1 mice, L1210 leukemia ip, survival T/C
Assay: NCI In Vivo Anticancer Drug Screen. Data for tumor model L1210 Leukemia (intraperitoneal) in CD2F1 (CDF1) mice
Settings: higher = longer survival
Method in brief: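 Implant tumor; dose compound or vehicle; measure endpoint in both groups; report treated divided by control.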

[1] = endpoint: mean survival time, dose: 100.0 mg/kg/injection, schedule: Q01DX009 (ip), vehicle: saline with Tween-80
[2] = endpoint: mean survival time, dose: 200.0 mg/kg/injection, schedule: Q01DX009 (ip), vehicle: saline with Tween-80
[3] = endpoint: mean survival time, dose: 100.0 mg/kg/injection, schedule: Q04DX003 (ip), vehicle: saline with Tween-80
[4] = endpoint: mean survival time, dose: 200.0 mg/kg/injection, schedule: Q04DX003 (ip), vehicle: saline with Tween-80
[5] = endpoint: mean survival time, dose: 400.0 mg/kg/injection, schedule: Q04DX003 (ip), vehicle: saline with Tween-80
[6] = endpoint: mean survival time, dose: 400.0 mg/kg/injection, schedule: Q01DX009 (ip), vehicle: saline with Tween-80
[7] = endpoint: mean survival time, dose: 100.0 mg/kg/injection, schedule: Q01DX001 (ip), vehicle: saline
[8] = endpoint: mean survival time, dose: 200.0 mg/kg/injection, schedule: Q01DX001 (ip), vehicle: saline

SMILES: Cc1ccc(NC(=O)N(CCCl)N=O)cc1
- T/C (endpoint: mean survival time, dose: 9.0 mg/kg/injection, schedule: Q01DX015 (ip), vehicle: saline): 189 % of control
- T/C (endpoint: mean survival time, dose: 15.0 mg/kg/injection, schedule: Q01DX015 (ip), vehicle: saline): 193 % of control
- T/C (endpoint: mean survival time, dose: 25.0 mg/kg/injection, schedule: Q01DX015 (ip), vehicle: saline): 87 % of control

SMILES: O=C(O)CC1CCCCCCCCCCC1=O (centres undefined)
- T/C (endpoint: mean survival time, dose: 100.0 mg/kg/injection, schedule: Q04DX002 (ip), vehicle: saline with Tween-80): 98 % of control
- T/C (endpoint: mean survival time, dose: 200.0 mg/kg/injection, schedule: Q04DX002 (ip), vehicle: saline with Tween-80): 91 % of control
- T/C (endpoint: mean survival time, dose: 400.0 mg/kg/injection, schedule: Q04DX002 (ip), vehicle: saline with Tween-80): 98 % of control

SMILES: NCC(=O)NC(Cc1ccccc1)C(=O)O (centres undefined) (H-Gly-[ξF]-OH)
- T/C (endpoint: mean survival time, dose: 50.0 mg/kg/injection, schedule: Q01DX009 (ip), vehicle: saline with Tween-80): 102 % of control
- T/C [1]: 100 % of control
- T/C [2]: 100 % of control

SMILES: COC(=O)/N=C(/N)SC
- T/C [3]: 100 % of control
- T/C [4]: 106 % of control
- T/C [5]: 97 % of control

SMILES: CCOC(=O)NC(S(=O)(=O)O)S(=O)(=O)O.[Tl]
- T/C (endpoint: mean survival time, dose: 6.25 mg/kg/injection, schedule: Q01DX001 (ip), vehicle: saline with Tween-80): 98 % of control
- T/C (endpoint: mean survival time, dose: 12.5 mg/kg/injection, schedule: Q01DX001 (ip), vehicle: saline with Tween-80): 90 % of control
- T/C (endpoint: mean survival time, dose: 25.0 mg/kg/injection, schedule: Q01DX001 (ip), vehicle: saline with Tween-80): 98 % of control

SMILES: O=C(O)CC(=O)O.[NH-]CC[NH-].[Pt+2]
- T/C (endpoint: mean survival time, dose: 25.0 mg/kg/injection, schedule: Q01DX009 (ip), vehicle: dextrose): 100 % of control
- T/C (endpoint: median survival time, dose: 40.0 mg/kg/injection, schedule: Q01DX009 (ip), vehicle: saline with Tween-80): 89 % of control
- T/C (endpoint: median survival time, dose: 50.0 mg/kg/injection, schedule: Q01DX001 (ip), vehicle: saline): 111 % of control

SMILES: c1ccc2c(c1)-c1ccccc1C1NC21 (centres undefined)
- T/C (endpoint: median survival time, dose: 6.25 mg/kg/injection, schedule: Q01DX009 (ip), vehicle: saline with Tween-80): 112 % of control
- T/C (endpoint: median survival time, dose: 12.5 mg/kg/injection, schedule: Q01DX009 (ip), vehicle: saline with Tween-80): 108 % of control
- T/C (endpoint: median survival time, dose: 25.0 mg/kg/injection, schedule: Q01DX009 (ip), vehicle: saline with Tween-80): 120 % of control

SMILES: NC(N)=NC(N)=Nc1ccc([As](=O)(O)O)c(O)c1
- T/C (endpoint: mean survival time, dose: 100.0 mg/kg/injection, schedule: Q01DX009 (ip), vehicle: saline sonified): 111 % of control

SMILES: OC(c1ccccc1)(c1ccccc1)c1ccc(Cl)cc1
- T/C [1]: 97 % of control
- T/C [2]: 101 % of control
- T/C [6]: 101 % of control

SMILES: CCOC(=O)NP(=O)(N1CC1(C)C)N1CC1(C)C (centres undefined)
- T/C (endpoint: mean survival time, dose: 45.0 mg/kg/injection, schedule: Q01DX009 (ip), vehicle: saline): 170 % of control
- T/C (endpoint: mean survival time, dose: 90.0 mg/kg/injection, schedule: Q01DX009 (ip), vehicle: saline): 232 % of control
- T/C (endpoint: mean survival time, dose: 180.0 mg/kg/injection, schedule: Q01DX009 (ip), vehicle: saline): 261 % of control

SMILES: C=C(C)c1ccc(C)c(C)c1
- T/C [1]: 93 % of control
- T/C [2]: 98 % of control
- T/C [6]: 114 % of control

SMILES: S=C1CCNCC1
- T/C (endpoint: mean survival time, dose: 12.5 mg/kg/injection, schedule: Q01DX009 (ip), vehicle: saline): 98 % of control
- T/C (endpoint: mean survival time, dose: 12.5 mg/kg/injection, schedule: Q04DX003 (ip), vehicle: saline): 100 % of control
- T/C (endpoint: mean survival time, dose: 25.0 mg/kg/injection, schedule: Q01DX009 (ip), vehicle: saline): 103 % of control
- T/C (endpoint: mean survival time, dose: 25.0 mg/kg/injection, schedule: Q04DX003 (ip), vehicle: saline): 96 % of control
- T/C (endpoint: mean survival time, dose: 50.0 mg/kg/injection, schedule: Q01DX009 (ip), vehicle: saline): 104 % of control
- T/C (endpoint: mean survival time, dose: 50.0 mg/kg/injection, schedule: Q04DX003 (ip), vehicle: saline): 87 % of control

SMILES: CCOC(=O)c1cnc(SCc2ccccc2)nc1N
- T/C [1]: 92 % of control
- T/C [3]: 100 % of control
- T/C [2]: 94 % of control
- T/C [4]: 100 % of control
- T/C [6]: 96 % of control
- T/C [5]: 97 % of control

SMILES: O=[N+]([O-])c1ccc(/C(CBr)=N/N2CCCCCC2)cc1
- T/C [7]: 91 % of control
- T/C [8]: 92 % of control
- T/C (endpoint: mean survival time, dose: 400.0 mg/kg/injection, schedule: Q01DX001 (ip), vehicle: saline): 95 % of control

SMILES: CNNCCO
- T/C (endpoint: mean survival time, dose: 50.0 mg/kg/injection, schedule: Q01DX001 (ip), vehicle: saline): 104 % of control
- T/C [7]: 101 % of control
- T/C [8]: 101 % of control
